Where a name gives a salt, the structure may show the parent alone.
Experiments:
PANC-1 cells = conditions: PANC-1, 1 at IC50, others at molar ratio 1:1:1, 72 h after treatment
Procedure: (§1) MCF7 cell line (human breast adenocarcinoma, morphology: epithelial-like, ATCC: HTB-22), A549 cell […]
(§2) keratinocyte, morphology: epidermal, CSL Cell Lines Service GmbH); were cultured in Dulbecco’s Modified Eagle’s Medium (DMEM, Corning) with phenol red, supplemented with 10% fetal bovine serum (FBS) and with 1% streptomycin/penicillin. […]
(§3) from metastatic site: brain, ATCC: HTB-81) and MCR-5 cell line (primary line of human pulmonary […]
(§4) 10% fetal bovine serum (FBS). Cultures were incubated at 37 °C under a humidified atmosphere containing 5% CO2. Cells were transferred using a solution containing 0.05% trypsin and 0.5 mM EDTA.
All media and other ingredients were purchased from ALAB, Poland. […]
Acridine Orange (OA) and Propidium Iodide PI Staining
AO is a nucleic acid-binding fluorophore that is cell membrane permeable and suitable for selective staining of nucleated living cells. PI is a nucleic acid-binding dye that is impermeable to live cells and suitable for staining dead or dying nucleated cells. All live, nucleated cells fluoresce green due to AO, and dead, nucleated cells are stained with both AO and PI and fluoresce red. For analysis of 1-induced

pBR322 plasmid = assay: DNA strand break analysis, agarose gel electrophoresis; format: biochemical; conditions: pBR322, 24 h, even at high concentration (500 μM)
Procedure: Then, the interaction between DNA and diclofenac, PTA, or 1 was evaluated by the gel electrophoresis of pBR322 plasmid to determine an ability to cause double- and/or single-strand DNA damages (Figure 6D). The double-strand damage may result in the appearance of different forms of DNA (linear form III and relaxed form II), which can be quantified by densitometry analysis (Figure 6E).
DNA Strand Break Analysis
The ability of 1, PTA and diclofenac to induce single- or double-strand breaks in plasmid DNA was tested
with the pBR322 plasmid (c = 0.5 mg/mL). All compounds were dissolved in water (c = 1 µM-500 µM).
After 1 h incubation at 37 °C, the reaction mixtures (20 μL) were mixed with 3 μL of loading buffer
(bromophenol blue in 30% glycerol) and loaded on 1% agarose gels, containing EB, in TBE buffer (90
mM Tris–borate, 20 mM EDTA, pH = 8.0). Gel electrophoresis was performed at a constant voltage of
100 V (4 V/cm) for 60 min. The gel was photographed and processed with a Digital Imaging System
(Syngen Biotech). For the densitometric analysis the UltraQuant 6.0 program was used.

MCF-7 = assay: MTT survival test, surviving fraction (Table S3); format: cell-based, human
Procedure: (§5) 24, and 72 h. After each incubation time, the cells were washed with PBS. Then, fresh medium (supplemented with 10% FSB) was added, and the cells were incubated under standard conditions for another 24 h (6h + 24h, 24h + 24h, 72h + 24h). After this time, the MTT survival test was done. Surviving fraction given in % was estimated with relation to untreated cells. In the case of 6h + 24h and 24h + 24h approaches, the cells were seeded at 10 000 cells per well, while in the case of 72h + 24h at […]

PANC-1 [1] = assay: MTT survival test, surviving fraction (Table S3); format: cell-based, human
Procedure: as §5

DU-145 [2] = assay: MTT survival test, surviving fraction (Table S3); format: cell-based, human
Procedure: as §5

A549 [3] = assay: MTT survival test, surviving fraction (Table S3); format: cell-based, human
Procedure: as §5

HaCat [4] = assay: MTT survival test, surviving fraction (Table S3); format: cell-based, human
Procedure: as §5

MCF7 = assay: MTT cytotoxicity assay (IC50); format: cell-based, human; conditions: Homo sapiens; MCF7, after 72 h incubation, MTT, vs untreated control cells; read-out: IC50
Procedure: as §1, §2, §3, §4
(§6) All media and other ingredients were purchased from ALAB, Poland.
(§7) Cytotoxicity was assessed by MTT assay performed according the protocols described elsewhere.S1 In brief, 1×10^4 cells per well, seeded in 96-well flat bottom microtiter plate, were incubated with the tested compounds (in the appropriate media) at various range of concentrations for 24 h. After that time, solutions of compounds were washed out, cells were washed three times with PBS and fresh medium was applied. After next 72 h cell viability was determined using the Hill equation (Origin 9.0) with regard to the untreated cells (control), where y0 – untreated cell control (which was set to 100% viability), y100 – a lysis control (where the cells were treated with 0.5% triton X-100 was set to 0% […]
(§8) [c] at which the viability of the cells reaches 50%, H – the Hill coefficient (describing cooperativity):
(§9) Each compound concentration was tested in five replicates and repeated at least three times.
(§10) Determined values of IC50 are given as mean + S.D. (Standard Deviation).
(§11) Cisplatin was tested as a reference anticancer drug. […]

PANC-1 [5] = assay: MTT cytotoxicity assay (IC50); format: cell-based, human; conditions: Homo sapiens; PANC-1, after 72 h incubation, MTT, vs untreated control cells; read-out: IC50
Procedure: as §1, §2, §3, §4, §6, §7, §8, §9, §10, §11

DU-145 [6] = assay: MTT cytotoxicity assay (IC50); format: cell-based, human; conditions: Homo sapiens; DU-145, after 72 h incubation, MTT, vs untreated control cells; read-out: IC50
Procedure: as §1, §2, §3, §4, §6, §7, §8, §9, §10, §11

MRC5 = assay: MTT cytotoxicity assay (IC50); format: cell-based, human; conditions: Homo sapiens; MRC5 normal cells, after 72 h incubation, MTT, vs untreated control cells; read-out: IC50
Procedure: as §1, §2, §3, §4, §6, §7, §8, §9, §10, §11

A549 [7] = assay: MTT cytotoxicity assay (IC50); format: cell-based, human; conditions: Homo sapiens; A549, after 72 h incubation, MTT, vs untreated control cells; read-out: IC50
Procedure: as §1, §2, §3, §4, §6, §7, §8, §9, §10, §11

HaCat [8] = assay: MTT cytotoxicity assay (IC50); format: cell-based, human; conditions: Homo sapiens; HaCat normal cells, after 72 h incubation, MTT, vs untreated control cells; read-out: IC50
Procedure: as §1, §2, §3, §4, §6, §7, §8, §9, §10, §11

[9] = comparison values, no method or reference printed at the place; cited from earlier work

Compound: O=C(O)Cc1ccccc1Nc1c(Cl)cccc1Cl [NaDf, diclofenac sodium salt]
- cytotoxicity seen by AO/PI staining (PANC-1 cells): did not induce visible cytotoxicity
- degradation of plasmid DNA (pBR322 plasmid): no degradation of DNA
- surviving fraction (MCF-7; MCF-7, 6h + 24h, dil. 10 000x (stocks: diclofenac 0.918, PTA 0.483, AgNO3 0.326 mg/mL)): 102.6 ± 13.4%
- surviving fraction (MCF-7; MCF-7, 6h + 24h, dil. 100x (stocks: diclofenac 0.918, PTA 0.483, AgNO3 0.326 mg/mL)): 78.6 ± 12.3%
- surviving fraction (MCF-7; MCF-7, 6h + 24h, dil. 1000x (stocks: diclofenac 0.918, PTA 0.483, AgNO3 0.326 mg/mL)): 89.5 ± 9.8%
- surviving fraction (MCF-7; MCF-7, 24h + 24h, dil. 10 000x (stocks: diclofenac 0.918, PTA 0.483, AgNO3 0.326 mg/mL)): 98.2 ± 9.8%
- surviving fraction (MCF-7; MCF-7, 24h + 24h, dil. 1000x (stocks: diclofenac 0.918, PTA 0.483, AgNO3 0.326 mg/mL)): 88.7 ± 10.6%
- surviving fraction (MCF-7; MCF-7, 72h + 24h, dil. 10 000x (stocks: diclofenac 0.918, PTA 0.483, AgNO3 0.326 mg/mL)): 97.8 ± 7.7%
- surviving fraction (MCF-7; MCF-7, 72h + 24h, dil. 1000x (stocks: diclofenac 0.918, PTA 0.483, AgNO3 0.326 mg/mL)): 85.4 ± 5.3%
- surviving fraction (PANC-1 [1]; PANC-1, 6h + 24h, dil. 10 000x (stocks: diclofenac 0.918, PTA 0.483, AgNO3 0.326 mg/mL)): 98.6 ± 7.8%
- surviving fraction (PANC-1 [1]; PANC-1, 6h + 24h, dil. 100x (stocks: diclofenac 0.918, PTA 0.483, AgNO3 0.326 mg/mL)): 75.3 ± 6.4%
- surviving fraction (PANC-1 [1]; PANC-1, 6h + 24h, dil. 1000x (stocks: diclofenac 0.918, PTA 0.483, AgNO3 0.326 mg/mL)): 84.5 ± 9.8%
- surviving fraction (PANC-1 [1]; PANC-1, 24h + 24h, dil. 10 000x (stocks: diclofenac 0.918, PTA 0.483, AgNO3 0.326 mg/mL)): 89.5 ± 9.9%
- surviving fraction (PANC-1 [1]; PANC-1, 24h + 24h, dil. 100x (stocks: diclofenac 0.918, PTA 0.483, AgNO3 0.326 mg/mL)): 71.2 ± 6.5%
- surviving fraction (PANC-1 [1]; PANC-1, 24h + 24h, dil. 1000x (stocks: diclofenac 0.918, PTA 0.483, AgNO3 0.326 mg/mL)): 82.4 ± 7.7%
- surviving fraction (PANC-1 [1]; PANC-1, 72h + 24h, dil. 10 000x (stocks: diclofenac 0.918, PTA 0.483, AgNO3 0.326 mg/mL)): 89.4 ± 6.3%
- surviving fraction (PANC-1 [1]; PANC-1, 72h + 24h, dil. 100x (stocks: diclofenac 0.918, PTA 0.483, AgNO3 0.326 mg/mL)): 68.5 ± 6.9%
- surviving fraction (PANC-1 [1]; PANC-1, 72h + 24h, dil. 1000x (stocks: diclofenac 0.918, PTA 0.483, AgNO3 0.326 mg/mL)): 80.3 ± 4.1%
- surviving fraction (DU-145 [2]; Du-145, 6h + 24h, dil. 10 000x (stocks: diclofenac 0.918, PTA 0.483, AgNO3 0.326 mg/mL)): 99.5 ± 8.2%
- surviving fraction (DU-145 [2]; Du-145, 6h + 24h, dil. 100x (stocks: diclofenac 0.918, PTA 0.483, AgNO3 0.326 mg/mL)): 78.2 ± 5.6%
- surviving fraction (DU-145 [2]; Du-145, 6h + 24h, dil. 1000x (stocks: diclofenac 0.918, PTA 0.483, AgNO3 0.326 mg/mL)): 87.7 ± 9.8%
- surviving fraction (DU-145 [2]; Du-145, 24h + 24h, dil. 10 000x (stocks: diclofenac 0.918, PTA 0.483, AgNO3 0.326 mg/mL)): 99.5 ± 10.7%
- surviving fraction (DU-145 [2]; Du-145, 24h + 24h, dil. 100x (stocks: diclofenac 0.918, PTA 0.483, AgNO3 0.326 mg/mL)): 78.7 ± 7.6%
- surviving fraction (DU-145 [2]; Du-145, 24h + 24h, dil. 1000x (stocks: diclofenac 0.918, PTA 0.483, AgNO3 0.326 mg/mL)): 88.4 ± 6.7%
- surviving fraction (DU-145 [2]; Du-145, 72h + 24h, dil. 10 000x (stocks: diclofenac 0.918, PTA 0.483, AgNO3 0.326 mg/mL)): 88.7 ± 6.1%
- surviving fraction (DU-145 [2]; Du-145, 72h + 24h, dil. 100x (stocks: diclofenac 0.918, PTA 0.483, AgNO3 0.326 mg/mL)): 70.8 ± 7.9%
- surviving fraction (DU-145 [2]; Du-145, 72h + 24h, dil. 1000x (stocks: diclofenac 0.918, PTA 0.483, AgNO3 0.326 mg/mL)): 71.4 ± 8.5%
- surviving fraction (A549 [3]; A549, 6h + 24h, dil. 10 000x (stocks: diclofenac 0.918, PTA 0.483, AgNO3 0.326 mg/mL)): 99.7 ± 4.3%
- surviving fraction (A549 [3]; A549, 6h + 24h, dil. 100x (stocks: diclofenac 0.918, PTA 0.483, AgNO3 0.326 mg/mL)): 72.5 ± 6.8%
- surviving fraction (A549 [3]; A549, 6h + 24h, dil. 1000x (stocks: diclofenac 0.918, PTA 0.483, AgNO3 0.326 mg/mL)): 88.7 ± 10.8%
- surviving fraction (A549 [3]; A549, 24h + 24h, dil. 10 000x (stocks: diclofenac 0.918, PTA 0.483, AgNO3 0.326 mg/mL)): 98.5 ± 10.9%
- surviving fraction (A549 [3]; A549, 24h + 24h, dil. 100x (stocks: diclofenac 0.918, PTA 0.483, AgNO3 0.326 mg/mL)): 70.9 ± 8.9%
- surviving fraction (A549 [3]; A549, 24h + 24h, dil. 1000x (stocks: diclofenac 0.918, PTA 0.483, AgNO3 0.326 mg/mL)): 81.8 ± 6.8%
- surviving fraction (A549 [3]; A549, 72h + 24h, dil. 10 000x (stocks: diclofenac 0.918, PTA 0.483, AgNO3 0.326 mg/mL)): 89.5 ± 8.2%
- surviving fraction (A549 [3]; A549, 72h + 24h, dil. 100x (stocks: diclofenac 0.918, PTA 0.483, AgNO3 0.326 mg/mL)): 67.7 ± 6.5%
- surviving fraction (A549 [3]; A549, 72h + 24h, dil. 1000x (stocks: diclofenac 0.918, PTA 0.483, AgNO3 0.326 mg/mL)): 78.5 ± 7.6%
- surviving fraction (HaCat [4]; 6h + 24h, dil. 10 000x (stocks: diclofenac 0.918, PTA 0.483, AgNO3 0.326 mg/mL)): 99.6 ± 10.8%
- surviving fraction (HaCat [4]; 6h + 24h, dil. 100x (stocks: diclofenac 0.918, PTA 0.483, AgNO3 0.326 mg/mL)): 86.5 ± 11.7%
- surviving fraction (HaCat [4]; 6h + 24h, dil. 1000x (stocks: diclofenac 0.918, PTA 0.483, AgNO3 0.326 mg/mL)): 92.5 ± 9.1%
- surviving fraction (HaCat [4]; 24h + 24h, dil. 10 000x (stocks: diclofenac 0.918, PTA 0.483, AgNO3 0.326 mg/mL)): 99.3 ± 12.8%
- surviving fraction (HaCat [4]; 24h + 24h, dil. 100x (stocks: diclofenac 0.918, PTA 0.483, AgNO3 0.326 mg/mL)): 88.8 ± 5.8%
- surviving fraction (HaCat [4]; 24h + 24h, dil. 1000x (stocks: diclofenac 0.918, PTA 0.483, AgNO3 0.326 mg/mL)): 99.2 ± 6.8%
- surviving fraction (HaCat [4]; 72h + 24h, dil. 10 000x (stocks: diclofenac 0.918, PTA 0.483, AgNO3 0.326 mg/mL)): 102.3 ± 11.2%
- surviving fraction (HaCat [4]; 72h + 24h, dil. 100x (stocks: diclofenac 0.918, PTA 0.483, AgNO3 0.326 mg/mL)): 88.4 ± 5.2%
- surviving fraction (HaCat [4]; 72h + 24h, dil. 1000x (stocks: diclofenac 0.918, PTA 0.483, AgNO3 0.326 mg/mL)): 99.2 ± 5.9%
- IC50 (MCF7): 978 ± 10.4 µM
- IC50 (PANC-1 [5]): 801 ± 124 µM
- IC50 (DU-145 [6]): 803 ± 14.7 µM
- IC50 (MRC5): 977.3 ± 5.9 µM
- IC50 (A549 [7]): 699 ± 7.1 µM
- IC50 (HaCat [8]): 1140 ± 18.3 µM
- log P [9]: 1.4

Source: paper PMC9776540, “Therapeutic Potential of a Water-Soluble Silver-Diclofenac Coordination Polymer on 3D Pancreatic Cancer Spheroids” (Journal of Medicinal Chemistry, 2022)
